One may read the IC50 as the concentration that inhibits the measured activity by half.

This assay concerns the target Transient receptor potential cation channel subfamily V member 1 (Homo sapiens, UniProt Q8NER1). The assay can be described thus: Antagonist activity at human TRPV1 expressed in HEK293 cell assessed as inhibition of capsaicin-induced calcium flux by fluorometric analysis. For orientation: A change in cytosolic calcium serves as a functional read-out for many receptors and channels.

Square brackets hold non-standard residues; d marks the D form. Peptide text beside a SMILES is read from it. d(aThr) = C[C@@H](O)[C@@H](N)C(=O)O; Dhb = C/C=C(\N)C(=O)O

Transient receptor potential cation channel subfamily V member 1, sequence (Q8NER1 whole entry): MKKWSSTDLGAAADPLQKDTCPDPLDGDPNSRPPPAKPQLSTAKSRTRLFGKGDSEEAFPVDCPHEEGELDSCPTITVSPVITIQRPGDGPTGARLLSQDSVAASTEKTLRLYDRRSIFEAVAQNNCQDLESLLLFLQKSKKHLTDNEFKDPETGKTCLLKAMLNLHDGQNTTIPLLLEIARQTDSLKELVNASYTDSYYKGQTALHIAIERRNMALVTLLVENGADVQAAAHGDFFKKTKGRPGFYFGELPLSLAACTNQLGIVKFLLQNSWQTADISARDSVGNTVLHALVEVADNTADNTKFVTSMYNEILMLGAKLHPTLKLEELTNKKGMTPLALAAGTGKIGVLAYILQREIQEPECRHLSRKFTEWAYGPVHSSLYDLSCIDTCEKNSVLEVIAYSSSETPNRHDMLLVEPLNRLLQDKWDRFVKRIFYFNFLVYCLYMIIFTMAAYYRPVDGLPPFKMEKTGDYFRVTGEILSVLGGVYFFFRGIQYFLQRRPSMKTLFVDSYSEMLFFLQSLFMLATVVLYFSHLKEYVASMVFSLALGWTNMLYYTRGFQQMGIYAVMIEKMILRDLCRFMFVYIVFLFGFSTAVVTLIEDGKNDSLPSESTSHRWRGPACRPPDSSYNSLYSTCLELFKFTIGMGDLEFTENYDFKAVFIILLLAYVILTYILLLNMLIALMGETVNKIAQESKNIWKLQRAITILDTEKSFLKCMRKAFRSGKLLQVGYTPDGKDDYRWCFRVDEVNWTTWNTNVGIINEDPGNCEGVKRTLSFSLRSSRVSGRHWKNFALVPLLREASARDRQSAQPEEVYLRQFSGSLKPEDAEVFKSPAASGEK

Regarding `C/C=C(\NC(=O)[C@H](C)NC(=O)[C@@H](NC(=O)[C@H](NC(=O)[C@H](Cc1ccccc1)NC(=O)[C@@H](CC(C)C)NC(=O)[C@@H](Cc1ccccc1)NC(C)=O)[C@@H](C)O)C(C)C)C(=O)O` [Nobilamide A] (Ac-[dF][dL]F[d(aThr)]VA[Dhb]-OH), the IC50 was found to be 1660 µM.
